# Assay results from article PMC9323974, “Palladium(II) Complexes of Substituted Salicylaldehydes: Synthesis, Characterization and Investigation of Their Biological Profile” (Pharmaceuticals, 2022).
# Key:
# DPPH radical scavenging = details: compound 0.1 mM
# Description: S1 Antioxidant biological assay
# The antioxidant activity of the compounds was evaluated via their ability to scavenge in
# vitro free radicals such as DPPH and ABTS and to reduce H2O2. All the experiments were carried
# S1.1 Determination of the reducing activity of the stable radical DPPH
# To an ethanolic solution of DPPH (0.1 mM) an equal volume solution of the compounds
# (0.1 mM) in ethanol was added. Absolute ethanol was also used as control solution. The absorbance
# at 517 nm was recorded at room temperature after 30 and 60 min, in order to examine the possible
# existence of a potential time–dependence of the DPPH radical scavenging activity [S1]. The DPPH–
# scavenging activity of the compounds was expressed as the percentage reduction of the absorbance
# values of the initial DPPH solution (DPPH%). NDGA and BHT were used as reference compounds. […]
# [1] = test system: Escherichia coli NCTC 29212; test: MIC determination; type: cell-based; details: 24 h
# Description: (§1) S2 Antibacterial activity
# (§2) The antimicrobial activity of the compounds was evaluated by determining their respective MIC values towards two Gram–(–) (Escherichia coli NCTC 29212 (E. coli) and Xanthomonas campestris ATCC 1395 (X. campestris)) and two Gram–(+) (Staphylococcus aureus ATCC 6538 (S. aureus) and Bacillus subtilis ATCC 6633 (B. subtilis)) bacterial species. Cultures of these microbial strains were grown on a rich selective agar medium and stored at 4°C. The selective media used were Nutrient Agar or Broth for B. subtilis and S. aureus, Yeast Mold Agar or Broth for X. campestris and Luria Agar or Broth for E. coli. Cells picked from the surface of the stored cultures were used to initiate liquid pre–cultures of the same selective medium at an initial turbidity of roughly 1 McFarland unit. Pre–cultures were incubated for 24 h in a rotary shaking incubator and subsequently they were used to inoculate the test cultures used for the determination of MIC at an initial turbidity of 0.5 McFarland units. The test cultures consisted of Mueller –Hinton broth (Deben Diagnostics Ltd) containing different concentrations of the compounds.
# (§3) Different concentrations were achieved as follows: the compounds were freshly dissolved in DMSO to a concentration of 1 mg mL–1 and they were diluted with DMSO, using the method of progressive double dilution. Therefore, working solutions with decreasing concentrations of the compounds under investigation were achieved. The working solutions were subsequently diluted to the final desired concentration by addition to the growth medium at a proportion of 2:98. MIC values were determined as the lowest concentrations of the tested compounds that inhibited visible growth of each respective organism after a 24 h incubation [ S3]. Bacterial growth was determined by measuring the turbidity of appropriately diluted cultures at 600 nm with reference to equally diluted sterile growth medium and the inhibition achieved was calculated by comparing the turbidity of each culture to the average of the turbidity of three non–inhibited cultures. All test cultures were grown in triplicates and for the determination of MIC, growth had to be inhibited in at least two cultures of the triplicate. Incubation temperature at all stages was 37°C except for X. campestris that was cultivated at 28°C [S4].
# [2] = test system: Xanthomonas campestris ATCC 1395; test: MIC determination; type: cell-based; details: 24 h
# Description: as §1, §2, §3
# [3] = test system: Bacillus subtilis ATCC 6633; test: MIC determination; type: cell-based; details: 24 h
# Description: as §1, §2, §3
# [4] = test system: Staphylococcus aureus ATCC 6538; test: MIC determination; type: cell-based; details: 24 h
# Description: as §1, §2, §3
# EB-DNA adduct (CT DNA) = test: EB-displacement from EB-DNA (fluorescence); type: binding, calf
# Description: page 8: […] spectroscopy, viscosity measurements and fluorescence emission spectroscopy studies. […] UV-vis spectroscopy was used for the evaluation of the interaction of the compounds with CT DNA, and specifically the possible binding modes of the compounds to CT DNA. Control experiments with DMSO were performed and no changes in the spectra of CT DNA were observed. In order to determine the binding mode, the UV-vis spectra of the compounds were […] concentrations of CT DNA for diverse r (r = [complex]/[DNA]) values. Effective use of the changes […] compounds were calculated by the Wolfe-[…] equation (eq. […] εf) versus [DNA]: (eq. S1) where [DNA] = the concentration of DNA in base pairs, ε f= the extinction coefficient for the free compound at the corresponding λmax, εA = Aobsd/[compound] and εb= the extinction coefficient for the compound in the fully bound form. K b is given by the ratio of slope to the y intercept in plots [DNA]/(εA-εf) versus [DNA]. S3.2 CT DNA-binding studies by viscosity measurements […] presence of increasing amounts of the compounds. The experiments were executed at room temperature and the measurements are devised in a plot (η/η 0)1/3 versus r, where η = the viscosity of DNA in the presence of the compound, and η0 = the viscosity of neat DNA in buffer solution. […] In order to determine and confirm the DNA-binding mode of the compounds, a competitive study with EB as an intercalating marker is performed by fluorescence emission spectroscopy. Therefore, the EB-displacing ability of the compounds from its EB-DNA conjugate was examined. […] solution (150 mM NaCl and 15 mM trisodium citrate at pH 7.0). The potential intercalation of the compounds between the DNA-bases was studied by the addition of a certain amount of the 8 (1 picture or pasted object on this page, not shown here) page 9: compound solution into the EB-DNA adduct solution. The influence of the compounds on the EB- DNA solution was monitored through the changes of the fluorescence emission spectra at excitation wavelength (λex) at 540 nm [S6]. […] Bearing that in mind, the observed quenching of the EB-DNA solution is evidently associated to the displacement of EB from its EB-DNA adduct. The quenching efficiency (KSV) for each compound was assessed according to the Stern - Volmer equation (eq. S2) [S6]: (eq. S2) where I0 and I = the fluorescence emission intensities of EB-DNA in the absence and presence of the quencher, respectively, [Q] = the concentration of the quencher (i.e. compounds). K SV is obtained from the Stern-Volmer plots by the slope of the diagram I0/I versus [Q]. Taking τ0 = 23 ns […] M-1s-1) of the compounds can be determined according to e quation S3: KSV = kqτo (eq. S3) 9 (1 picture or pasted object on this page, not shown here)
smiles,measurement,setting,value
"COc1ccc(C=O)c([O-])c1.COc1ccc(C=O)c([O-])c1.[Pd+2] [Complex 5, [Pd(4-OMe-salo)2]]",DPPH% (30 min),DPPH radical scavenging; 30 min,2.29 ± 0.36%
same,DPPH% (60 min),DPPH radical scavenging; 60 min,3.00 ± 0.25%
same,MIC E. coli,[1],100 µg/mL
same,MIC,"[1]; value in parentheses, read-out: MIC E. coli",245 µM
same,MIC X. campestris,[2],100 µg/mL
same,MIC X. campestris,[2]; value in parentheses,245 µM
same,MIC B. subtilis,[3],100 µg/mL
same,MIC,"[3]; value in parentheses, read-out: MIC B. subtilis",245 µM
same,MIC S. aureus,[4],100 µg/mL
same,MIC,"[4]; value in parentheses, read-out: MIC S. aureus",245 µM
same,"KSV (Stern–Volmer constant), EB-DNA",EB-DNA adduct (CT DNA),4.26 (±0.08) × 10^4 M^−1
same,ΔΙ/Ι0 (%) EB-DNA fluorescence quenching,"EB-DNA adduct (CT DNA); [EB] = 20 μM, [DNA] = 26 μM",44.2%
same,"EB-DNA relative fluorescence emission intensity, % of the initial","EB-DNA adduct (CT DNA); λemission = 592 nm, final value",55.8%
same,kq (EB-DNA quenching constant),EB-DNA adduct (CT DNA); τo = 23 ns,1.85 (±0.04) × 10^12 M^−1s^−1
